Measured values reported in patent US20240190880A1 (THE REGENTS OF THE UNIVERSITY OF MICHIGAN, priority 2021, published 2024).

Target: T1, ER (Homo sapiens, UniProt P03372)
T1 construct: host or cells: T47D and MCF7 human breast cancer cells
T1 sequence (P03372 1-595): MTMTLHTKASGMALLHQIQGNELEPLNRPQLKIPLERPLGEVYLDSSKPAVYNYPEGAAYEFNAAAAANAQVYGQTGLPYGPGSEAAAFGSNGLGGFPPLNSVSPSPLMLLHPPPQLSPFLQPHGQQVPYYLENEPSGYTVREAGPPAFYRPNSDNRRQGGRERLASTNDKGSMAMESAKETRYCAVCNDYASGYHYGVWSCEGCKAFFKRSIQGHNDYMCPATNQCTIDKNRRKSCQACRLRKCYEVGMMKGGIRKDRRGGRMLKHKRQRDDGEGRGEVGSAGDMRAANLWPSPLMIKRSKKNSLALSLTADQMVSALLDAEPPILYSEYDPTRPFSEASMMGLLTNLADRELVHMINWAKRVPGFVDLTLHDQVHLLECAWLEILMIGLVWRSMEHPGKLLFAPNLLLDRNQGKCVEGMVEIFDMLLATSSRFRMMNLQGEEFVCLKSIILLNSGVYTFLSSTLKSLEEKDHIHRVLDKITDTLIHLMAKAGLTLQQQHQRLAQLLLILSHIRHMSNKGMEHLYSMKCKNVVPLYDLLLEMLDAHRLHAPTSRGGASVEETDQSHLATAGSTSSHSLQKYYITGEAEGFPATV
Assay: ER degradation activity, in-cell western blot analysis in T47D cells
Assay type: cell-based
Conditions: 16 hours, Table A does not say which cell line (T47D or MCF7), read-out: Potency (DC50)
Method in brief: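 Human T47D cells (DMEM, 10% FBS) are dosed for 16 h with 0.5% DMSO final and probed with 680- and 800-dye secondary antibodies. Relative ER is calculated against vehicle and untreated wells.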

Structure (SMILES)	DC50 [nM]
C[C@@H]1Cc2c([nH]c3ccccc23)[C@@H](c2ccc(N3CCC4(CCN(C(=O)CN5Cc6cc7c(cc6C5)C(=O)N(C5CCC(=O)NC5=O)C7=O)CC4)CC3)cc2)N1CC(F)F (stereo partly drawn) [E 265, 6-(2-(9-(4-((1R,3R)-2-(2,2-difluoroethyl)-3-methyl-2,3,4,9-tetrahydro-1H-pyrido[3,4-b]indol-1-yl)phenyl)-3,9-diazaspiro[5.5]undecan-3-yl)-2-oxoethyl)-2-(2,6-dioxopiperidin-3-yl)-6,7-dihydropyrrolo[3,4-f]isoindole-1,3(2H,5H)-dione]	10 to 100
C[C@@H]1Cc2cc(O)ccc2[C@@H](c2c(F)cc(N3CCC(C(=O)N4CCC(N5Cc6cc7c(cc6C5)C(=O)N(C5CCC(=O)NC5=O)C7=O)CC4)CC3)cc2F)N1CC(F)F (stereo partly drawn) [E 269, 6-(1-(1-(4-((1S,3R)-2-(2,2-difluoroethyl)-6-hydroxy-3-methyl-1,2,3,4-tetrahydroisoquinolin-1-yl)-3,5-difluorophenyl)piperidine-4-carbonyl)piperidin-4-yl)-2-(2,6-dioxopiperidin-3-yl)-6,7-dihydropyrrolo[3,4-f]isoindole-1,3(2H,5H)-dione]	> 100
C[C@@H]1Cc2cc(O)ccc2[C@@H](c2c(F)cc(N3CCC(CN4CCC(N5Cc6cc7c(cc6C5)C(=O)N(C5CCC(=O)NC5=O)C7=O)CC4)CC3)cc2F)N1CC(F)F (stereo partly drawn) [E 270, 6-(1-((1-(4-((1S,3R)-2-(2,2-difluoroethyl)-6-hydroxy-3-methyl-1,2,3,4-tetrahydroisoquinolin-1-yl)-3,5-difluorophenyl)piperidin-4-yl)methyl)piperidin-4-yl)-2-(2,6-dioxopiperidin-3-yl)-6,7-dihydropyrrolo[3,4-f]isoindole-1,3(2H,5H)-dione]	> 100

Next, values leading:

DC50 [nM]	Structure (SMILES)
10 to 100	C[C@@H]1Cc2c([nH]c3ccccc23)[C@@H](c2ccc(N3CCC4(CC3)CN(C(=O)CN3Cc5cc6c(cc5C3)C(=O)N(C3CCC(=O)NC3=O)C6=O)C4)cc2)N1CC(F)F (stereo partly drawn) [E 262, 6-(2-(7-(4-((1R,3R)-2-(2,2-difluoroethyl)-3-methyl-2,3,4,9-tetrahydro-1H-pyrido[3,4-b]indol-1-yl)phenyl)-2,7-diazaspiro[3.5]nonan-2-yl)-2-oxoethyl)-2-(2,6-dioxopiperidin-3-yl)-6,7-dihydropyrrolo[3,4-f]isoindole-1,3(2H,5H)-dione]
10 to 100	C[C@@H]1Cc2c([nH]c3ccccc23)[C@@H](c2ccc(N3CCC(C(=O)N4CCC(N5Cc6cc7c(cc6C5)C(=O)N(C5CCC(=O)NC5=O)C7=O)CC4)CC3)cc2)N1CC(F)F (stereo partly drawn) [E 263, 6-(1-(1-(4-((1R,3R)-2-(2,2-difluoroethyl)-3-methyl-2,3,4,9-tetrahydro-1H-pyrido[3,4-b]indol-1-yl)phenyl)piperidine-4-carbonyl)piperidin-4-yl)-2-(2,6-dioxopiperidin-3-yl)-6,7-dihydropyrrolo[3,4-f]isoindole-1,3(2H,5H)-dione]
10 to 100	C[C@@H]1Cc2c([nH]c3ccccc23)[C@@H](c2ccc(N3CCC(CN4CCC(N5Cc6cc7c(cc6C5)C(=O)N(C5CCC(=O)NC5=O)C7=O)CC4)CC3)cc2)N1CC(F)F (stereo partly drawn) [E 264, 6-(1-((1-(4-((1R,3R)-2-(2,2-difluoroethyl)-3-methyl-2,3,4,9-tetrahydro-1H-pyrido[3,4-b]indol-1-yl)phenyl)piperidin-4-yl)methyl)piperidin-4-yl)-2-(2,6-dioxopiperidin-3-yl)-6,7-dihydropyrrolo[3,4-f]isoindole-1,3(2H,5H)-dione]
< 10	O=C1CCC(N2C(=O)c3cc4c(cc3C2=O)CN(C2CCN(CC3CCN(c5ccc([C@@H]6c7ccc(O)cc7CC[C@@H]6c6ccccc6)cc5)CC3)CC2)C4)C(=O)N1 (stereo partly drawn) [E 271, 2-(2,6-dioxopiperidin-3-yl)-6-(1-((1-(4-((1R,2S)-6-hydroxy-2-phenyl-1,2,3,4-tetrahydronaphthalen-1-yl)phenyl)piperidin-4-yl)methyl)piperidin-4-yl)-6,7-dihydropyrrolo[3,4-f]isoindole-1,3(2H,5H)-dione]
